This passage reports EC50 results from patent US12565494B2, “Inhibitors of human respiratory syncytial virus and metapneumovirus” (priority 2022, dated 2026).

pEC50: −log10 of the molar value. Like-named read-outs stand apart in the source and are kept apart here.

Assay [1] concerns hMPV-GFP virus. The experiment in a line: microbe, parasite or virus in culture. Format: cell-based, Human Metapneumovirus. The following applies: VERO cells, hMPV-GFP MOI=1.25, 48 hrs, GFP-expressing cells counted. How it is done: GFP expressing rgHMPV #3 p3 was generated in Dr. Buchholz's lab (Biacchesi S. et al., J Virol. 2007 June; 81(11): 6057-6067) and propagated in VERO cells (ATCC Cat #CCL-81) with a Multiplicity of Infection (MOI) of 0.1. Virus was harvested 4 days after infection by collecting cultured material and was freeze-thaw cycled in liquid nitrogen twice. Working virus stocks were generated from thawing frozen samples in 37° C. water bath, which were centrifuged at 218 g for 15 min at 4° C. 1/10 of 10×SPG (Biological Industries 06-3061-01-5A) were added and then mixed. The supernatant was aliquoted, frozen in liquid nitrogen, and then transferred to a −80° C. freezer for storage. Virus titer was determined by performing titration test in 96-well plates and calculate approximate virus titer using GFP event/well data.
Compound plates were prepared by dispensing compounds dissolved in DMSO into wells of a 384 well Corning 3985 polystyrene flat clear bottom optical imaging microplate (202.5 nL/well) using an ECHO acoustic dispenser. Each compound was tested in 10-point serial 3-fold dilution (typical final concentrations: 40,300 nM-2 nM). […] Continuous culture of VERO cells was maintained in complete culture media (OptiMEM supplemented with 2 mM GlutaMAX™ and 100 U/ml Penicillin-Streptomycin). To set up the assay, VERO cells were trypsinized with 0.25% Trypsin-EDTA until cells were dislodged, then cells were re-suspended with 1 mL FBS. Cells were spundown at 300 g for 5 minutes and cells were washed twice with culture media and counted using default parameters on ViCell. Cells were then diluted to 100,000 cells/mL (5,000 cells/50 μL) in complete culture media+TrypLE Select (80 μL/mL). hMPV-GFP virus was added to cells at 125,000 pfu/mL (MOI=1.25) and were mixed by gentle inversion. 10 μL/well of 100% DMSO was dispensed to CellTiter-Glo (CTG) assay Max_E controls wells. Cells were dispensed at 50 μL/well using Bravo and 50 μL filtered tips into compound plates. Plates were covered with MicroClime lids and loaded with 7.5 mL of assay media to minimize evaporation. Plates were lightly shaken for 10 minutes at room temperature and then incubated at 37° C. and 5% CO2 for 48 hrs. Following incubation, distinct GFP-expressing cells were counted using an Acumen imaging system with appropriate settings. A same-well CTG assay was performed by adding 10 μL/well reconstituted CellTiter-Glo reagent (Promega G7573) and plates were read on PerkinElmer Envision according to manufacturer's instructions. Raw data were loaded and analyzed in ActivityBase. Antiviral IC50 and cytotoxicity CC50 values were determined using a 4 parameter logistic fit based on the Levenberg-Marquardt algorithm. Model: 205-4 Parameter Logistic.

Assay [2] relates to RSV-A2-GFP virus. The experiment in a line: microbe, parasite or virus in culture. The following applies: Calu-1 cells, RSV-A2-GFP MOI=1.2, 96 hrs, GFP-expressing cells counted. It counts as cell-based, Human Respiratory Syncytial Virus. How it is done:
To set up the assay, ARF vials were thawed in a 37° C. water bath and a control compound was resuspended in assay media DMEM (Dulbecco's Modified Eagle Medium) containing 2% FBS, 100 U/ml Penicillin-Streptomycin.
GFP sequence was derived from pJTI™ R4 Dest CMV N-EmGFP pA Vector (Invitrogen) and was cloned into the intergenic sequence between wild-type RSV-A2 P and M genes using standard recombineering techniques. Recombinant RSV-A2-GFP was propagated in Hep2 cells (human cells contain HeLa marker chromosomes and were derived via HeLa contamination, ATCC CCL-23) with a Multiplicity of Infection (MOI) of 0.1. Virus was harvested 3 days after infection by collecting all culture material and then freeze-thawing the mixture for 5 minutes. Working virus stocks were generated by thawing frozen viral cultures in 37° C. water bath, which were centrifuged at 218 g for 15 min at 4° C. 1/10 of 10×SPG (Biological Industries 06-3061-01-5A) were added and then mixed. The supernatant was aliquoted, frozen in liquid nitrogen, and then transferred to a −80° C. freezer for storage. Virus titer was determined by automated plaque assay in HEp-2 cells following methods described previously (Wen Z. et al.; 2019).
Calu-1 cells were purchased from ATCC (Cat #HTB-54) and were expanded in growth media (DMEM containing 10% FBS, 100 U/ml Penicillin-Streptomycin). To make ARF, cell culture media was removed and discarded and the cell layer was briefly rinsed with PBS to remove serum. 2.5 mL of TrypLE Express solution were added and cells incubated until dislodged, to which growth media was added and the cells were resuspended by gentle pipetting. Cells were counted for concentration and viability as determined by ViCell. Cells were centrifuged at RT, 300 g for 5 minutes to pellet cells. The supernatant was gently aspirated and the pellet was flicked to loosen cells. Cells were resuspended in an appropriate volume of freezing medium (DMEM containing 10% DMSO, 10% FBS, 100 U/ml Penicillin-Streptomycin) to achieve a concentration of 5×10^6 cells/mL. 1 mL aliquots of the cell suspension were transferred to freezing vials. The vials were put into an upright container in a −80° C. freezer overnight before transferring vials to liquid nitrogen for storage
Assay ready freeze-down (ARF, generation described separately) Calu-1 cells (ATCC HTB-54) were used. Compound plates were prepared by dispensing compounds dissolved in DMSO into the wells of a 384 well Corning® 3985 plate with an ECHO acoustic dispenser and compounds were tested in 10-point serial 3-fold dilution. […] To set up the assay, ARF vial(s) were thawed in a 37° C. water bath and were then resuspended into assay media (DMEM containing 2% FBS, 100 U/ml Penicillin-Streptomycin). Cells were counted using default parameters on ViCell and diluted to 20,000 cells/mL in assay media. RSV-A2-GFP virus was added to cells at 24,000 pfu/ml (MOI=1.2) and mixed by gentle inversion. 10 μL/well of 100% DMSO was dispensed as CellTiter-Glo (CTG) assay Max_E controls wells. The cells were dispensed at 50 μL/well using Bravo with 50 μL filtered tips into compound plates. Plates were covered with MicroClime lids, loaded with 7.5 mL of assay media to minimize evaporation, and were incubated at 37° C. and 5% CO2 for 96 hrs. Following incubation, distinct, GFP-expressing cells were counted using an Acumen imaging system with appropriate settings. A same-well CTG assay was performed by adding 10 μL/well reconstituted CellTiter-Glo reagent (Promega G7573) and plates were read on PerkinElmer Envision according to manufacturer's instructions. Raw data were loaded and analyzed in ActivityBase. Antiviral IC50 and cytotoxicity CC50 values were determined using a 4 parameter logistic fit based on the Levenberg-Marquardt algorithm. Model: 205-4 Parameter Logistic.

Setting [3] is: Table II Summary of Activities for hMPV, read-out: RSV EC50.
Where [4] appears, read: Table I Summary of Activities for RSV, read-out: RSV EC50.
The mark [5] stands for this setting: read-out: RSV EC50, Table II Summary of Activities for hMPV.
[6] abbreviates: read-out: RSV EC50, Table I Summary of Activities for RSV.
The mark [7] stands for this setting: Vero, 48 h, read-out: RSV EC50, Table II Summary of Activities for hMPV.
Where [8] appears, read: human respiratory syncytial virus, Calu-1, 96 h, read-out: RSV EC50, Table I Summary of Activities for RSV.

One may read the pEC50 as −log10 of the EC50, conventionally taken in molar units. `Cc1nc(-c2cscn2)sc1C(=O)N1C[C@@H]2[C@H](C1)[C@H]2Oc1cc(C(C)(C)N)cc(-c2ccc(F)cc2F)n1` [Example 33, ((1R,5S,6s)-6-((4-(2-aminopropan-2-yl)-6-(2,4-difluorophenyl)pyridin-2-yl)oxy)-3-azabicyclo[3.1.0]hexan-3-yl)(4-methyl-[2,4′-bithiazol]-5-yl)methanone]: the negative-log EC50 (pEC50) is less than 7.00 in assay [1] (setting [3]) and greater than 8.00 in assay [2] (setting [4]).

As for `Cc1nc(-c2nccs2)sc1C(=O)N1C[C@@H]2[C@H](C1)[C@H]2Oc1cc(C(C)(C)N)cc(-c2ccc(F)cc2)n1` [Example 6, ((1R,5S,6s)-6-((4-(2-aminopropan-2-yl)-6-(4-fluorophenyl)pyridin-2-yl)oxy)-3-azabicyclo[3.1.0]hexan-3-yl)(4-methyl-[2,2′-bithiazol]-5-yl)methanone], the pEC50 is less than 7.00 in assay [1] (setting [3]) and greater than 8.00 in assay [2] (setting [4]).

Turning to `Cn1nc(-c2ncco2)cc1C(=O)N1C[C@@H]2C(Oc3cc(C(C)(N)CO)cc(-c4ccc(F)cc4)n3)[C@@H]2C1` (single isomer, unassigned; enantiomer 1) [Example 58A], the pEC50 is less than 7.00 in assay [1] (setting [3]) and greater than 8.00 in assay [2] (setting [4]).

`Cn1nc(-c2ncco2)cc1C(=O)N1C[C@@H]2[C@H](C1)[C@H]2Oc1cc(C(C)(C)N)cc(-c2ccc3c(c2)CC3(F)F)n1` [Example 35, ((1R,5S,6s)-6-((4-(2-aminopropan-2-yl)-6-(7,7-difluorobicyclo[4.2.0]octa-1(6),2,4-trien-3-yl)pyridin-2-yl)oxy)-3-azabicyclo[3.1.0]hexan-3-yl)(1-methyl-3-(oxazol-2-yl)-1H-pyrazol-5-yl)methanone]: the negative logarithm of the EC50 (pEC50) in assay [1] (setting [3]) is less than 7.00; in assay [2] (setting [4]), greater than 8.00.

`Cn1nc(-c2cscn2)cc1C(=O)N1C[C@@H]2[C@H](C1)[C@H]2Oc1cc(C2(C)CCCN2)cc(-c2ccc(F)cc2)n1` (single isomer, unassigned; enantiomer 2) [Example 56B]: the pEC50 in assay [1] (setting [5]) is less than 7.00; in assay [2] (setting [6]), greater than 8.00.

With `Cc1nc(-c2cscn2)sc1C(=O)N1C[C@@H]2[C@H](C1)[C@H]2Oc1cc(C(C)(C)N)cc(-c2ccc(F)cc2)n1` [Example 7, ((1R,5S,6s)-6-((4-(2-aminopropan-2-yl)-6-(4-fluorophenyl)pyridin-2-yl)oxy)-3-azabicyclo[3.1.0]hexan-3-yl)(4-methyl-[2,4′-bithiazol]-5-yl)methanone], the results for the pEC50 in assay [1] (setting [3]) and in assay [2] (setting [4]) were 7.00 to 8.00 and greater than 8.00, respectively.

For `CCn1nc(-c2cscn2)cc1C(=O)N1C[C@@H]2[C@H](C1)[C@H]2Oc1cc(C(C)(C)N)cc(-c2ccc(F)cc2)n1` [Example 19, ((1R,5S,6s)-6-((4-(2-aminopropan-2-yl)-6-(4-fluorophenyl)pyridin-2-yl)oxy)-3-azabicyclo[3.1.0]hexan-3-yl)(1-ethyl-3-(thiazol-4-yl)-1H-pyrazol-5-yl)methanone], the negative logarithm of the EC50 (pEC50) in assay [1] (setting [7]) was 7.00 to 8.00; in assay [2] (setting [8]), greater than 8.00.

Consider `Cn1nc(-c2cscn2)cc1C(=O)N1C[C@@H]2[C@H](C1)[C@H]2Oc1cc(C2(C)CCN2)cc(-c2ccc(F)cc2)n1` (single isomer, unassigned; enantiomer 2) [Example 55B], for which the negative logarithm of the EC50 (pEC50) was less than 7.00 in assay [1] (setting [5]) and greater than 8.00 in assay [2] (setting [6]).

Regarding `Cn1nc(-c2cscn2)c(F)c1C(=O)N1C[C@@H]2[C@H](C1)[C@H]2Oc1cc(C(C)(C)N)cc(-c2ccc(F)cc2)n1` [Example 25, ((1R,5S,6s)-6-((4-(2-aminopropan-2-yl)-6-(4-fluorophenyl)pyridin-2-yl)oxy)-3-azabicyclo[3.1.0]hexan-3-yl)(4-fluoro-1-methyl-3-(thiazol-4-yl)-1H-pyrazol-5-yl)methanone], the pEC50 in assay [1] (setting [7]) is 7.00 to 8.00; in assay [2] (setting [8]), greater than 8.00.

Regarding `Cn1nc(-c2ncco2)cc1C(=O)N1C[C@@H]2[C@H](C1)[C@H]2Oc1cc(-c2ccc(F)cc2)cc(C(C)(C)N)n1` [Example 60, ((1R,5S,6s)-6-((6-(2-aminopropan-2-yl)-4-(4-fluorophenyl)pyridin-2-yl)oxy)-3-azabicyclo[3.1.0]hexan-3-yl)(1-methyl-3-(oxazol-2-yl)-1H-pyrazol-5-yl)methanone], the pEC50 in assay [1] (setting [3]) was less than 7.00; in assay [2] (setting [4]), greater than 8.00.

Consider `Cn1nc(-c2ccon2)cc1C(=O)N1C[C@H]2[C@H](Oc3cc(C(C)(C)N)cc(-c4ccc(F)cc4)n3)[C@@]2(C)C1` (single isomer, unassigned; enantiomer 2) [Example 45B], for which the figures for the pEC50 in assay [1] (setting [5]) and in assay [2] (setting [6]) were less than 7.00 and greater than 8.00, respectively.

As for `Cn1nc(-n2nccn2)cc1C(=O)N1C[C@@H]2[C@H](C1)[C@H]2Oc1cc(C(C)(C)N)cc(-c2ccc(F)cc2)n1` [Example 68, ((1R,5S,6s)-6-((4-(2-aminopropan-2-yl)-6-(4-fluorophenyl)pyridin-2-yl)oxy)-3-azabicyclo[3.1.0]hexan-3-yl)(1-methyl-3-(2H-1,2,3-triazol-2-yl)-1H-pyrazol-5-yl)methanone], the negative logarithm of the EC50 (pEC50) was 7.00 to 8.00 in assay [1] (setting [3]) and greater than 8.00 in assay [2] (setting [4]).
